# Assay results from US10894798B2, “Substituted dihydropyrrolopyrazole derivative” (UBE INDUSTRIES, LTD., priority 2015, dated 2021).
# Legend:
# [1] = biological target: T1, CDK7 (Homo sapiens, UniProt P50613); test: CDK7 enzyme inhibition test; format: biochemical; settings: [γ-33P]ATP, MBP substrate, 60 min preincubation at 25°C; Ki=IC50/(1+S/Km); read-out: Ki value of CDK7 inhibitory activity
# T1 construct: purchased Carna Biosciences, Inc. 04-108
# How it was run: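 Commercial human CDK7 with myelin basic protein substrate in HEPES pH 7.4 buffer with DTT, Triton X-100, MgCl2; compound preincubated 60 min at 25° C, then reaction run 20 min at 30° C after adding [γ-^33P]ATP (500 μM solution). TCA-precipitated ^33P-MBP counted by scintillation; IC50 converted to Ki via Ki=IC50/(1+S/Km).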
# [2] = biological target: T2, CDK2 (Homo sapiens, UniProt P24941); test: CDK2 enzyme inhibition test; format: biochemical; settings: [γ-33P]ATP, MBP substrate; Ki=IC50/(1+S/Km); read-out: Ki value of CDK2 inhibitory activity
# T2 construct: purchased Invitrogen Corp. PV3267
# How it was run: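 Commercial CDK2 phosphorylated MBP with [γ-33P]ATP (500 μM solution before mixing) in HEPES pH 7.4 buffer with DTT, Triton X-100 and MgCl2 for 20 min at 30 °C. TCA-precipitated 33P-MBP was counted by scintillation to give the IC50. Ki = IC50/(1+S/Km), with S the ATP concentration in the reaction.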
# [3] = tested on: human large intestine cancer cell (HCT 116) tumor; test: Tumor growth inhibition test in HCT 116-subcutaneously transplanted nude mouse; format: in vivo; settings: dose of 100 mg/kg, repeated oral administration, HCT-116 in female BALB nude mice, control group = 100%, read-out: rate of suppression of tumor volume
# Method: A human large intestine cancer cell line (HCT-116) was cultured in a McCoy's 5A medium containing 10% FBS and 1% penicillin/streptomycin/amphotericin B and adjusted to 1.0×10^8 cells/mL with PBS or Hanks solution (HBSS(−)). The prepared cell suspension was subcutaneously injected at 0.1 mL/mouse to the right abdomens of female BALB nude mice (supplied by Charles River Laboratories Japan, Inc.). After rearing for a certain period, the long diameter (mm) and short diameter (mm) of tumor were measured with electronic calipers, and the tumor volume was calculated according to the following expression: Tumor volume (mm^3)=(Long diameter)×(Short diameter)×(Short diameter)×0.5
# Individuals whose tumor volume was within the range of 50 to 200 mm^3 were selected and grouped such that the tumor volume was almost equivalent, then a test compound or only a solvent was orally administered in a repeated manner, and the body weights and tumor volume were measured. A test compound was suspended in a 0.5 w/v % aqueous methylcellulose solution (0.5% MC) (manufactured by Wako Pure Chemical Industries, Ltd.) and orally administered at 10 mL/kg in a repeated manner. When the tumor volume of the control group was defined as 100%, the rate of suppression of tumor volume (%) at each dose of the test compound was calculated.
# [4] = tested on: human large intestine cancer cell line (HCT-116); test: Human large intestine cancer (HCT-116) cell growth inhibition test; format: cell-based; settings: HCT-116, 72 h, culture for 3 days, sulforhodamine B, read-out: GI50 value, HCT-116 cell growth inhibition
# How it was run: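 HCT-116 cells were seeded at 0.5 to 2.0×10^3 cells/well in McCoy's 5A with 10% FBS and dosed with compound at 0.1% final DMSO after overnight culture. Growth was measured by sulforhodamine B absorbance after 3 days. GI50 was calculated from the inhibition rate at each concentration.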
# [5] = biological target: T3, PLK1 (Homo sapiens, UniProt P53350); test: PLK1 enzyme (polo-like kinase) inhibition test; format: biochemical; settings: [γ-33P]ATP, casein substrate; Ki=IC50/(1+S/Km); read-out: Ki value of PLK1 inhibitory activity
# T3 construct: purchased Carna Biosciences, Inc. 05-157
# How it was run: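 Recombinant PLK1 phosphorylates casein with [γ-^33P]ATP in MOPS buffer (pH 7.0) containing DTT and magnesium acetate, 20 min at 30° C. Reaction stopped with TCA; washed precipitate counted by liquid scintillation. IC50 for inhibition of ^33P incorporation into casein, converted to Ki via Ki=IC50/(1+S/Km).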
# T1 sequence (P50613 whole entry): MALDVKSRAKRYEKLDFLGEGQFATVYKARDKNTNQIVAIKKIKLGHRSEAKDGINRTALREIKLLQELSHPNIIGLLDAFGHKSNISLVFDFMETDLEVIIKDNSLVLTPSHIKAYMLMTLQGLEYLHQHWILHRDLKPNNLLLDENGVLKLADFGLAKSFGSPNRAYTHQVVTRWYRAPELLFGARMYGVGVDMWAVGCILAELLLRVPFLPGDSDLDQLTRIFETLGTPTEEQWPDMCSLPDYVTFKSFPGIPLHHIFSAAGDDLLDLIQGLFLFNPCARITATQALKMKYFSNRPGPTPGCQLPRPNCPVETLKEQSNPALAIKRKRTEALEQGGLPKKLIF
# T1 sequence (P51946 whole entry partner): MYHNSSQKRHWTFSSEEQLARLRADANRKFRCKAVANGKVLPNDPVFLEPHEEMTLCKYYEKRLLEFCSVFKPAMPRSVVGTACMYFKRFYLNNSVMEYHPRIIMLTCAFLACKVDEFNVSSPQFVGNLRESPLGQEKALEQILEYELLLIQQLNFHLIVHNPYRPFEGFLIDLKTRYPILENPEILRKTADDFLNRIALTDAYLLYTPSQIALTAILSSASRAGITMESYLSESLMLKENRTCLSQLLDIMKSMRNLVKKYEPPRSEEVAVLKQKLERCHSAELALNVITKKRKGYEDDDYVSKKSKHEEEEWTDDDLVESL
# T1 sequence (P51948 whole entry partner): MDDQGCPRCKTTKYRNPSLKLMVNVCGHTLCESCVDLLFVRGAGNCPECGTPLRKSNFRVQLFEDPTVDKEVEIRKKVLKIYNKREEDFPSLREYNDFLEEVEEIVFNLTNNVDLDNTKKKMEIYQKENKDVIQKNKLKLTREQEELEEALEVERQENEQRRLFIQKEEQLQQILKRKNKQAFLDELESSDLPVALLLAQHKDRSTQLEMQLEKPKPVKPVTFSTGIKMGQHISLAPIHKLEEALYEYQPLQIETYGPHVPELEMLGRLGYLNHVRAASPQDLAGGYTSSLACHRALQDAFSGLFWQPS
# T3 sequence (P53350 whole entry): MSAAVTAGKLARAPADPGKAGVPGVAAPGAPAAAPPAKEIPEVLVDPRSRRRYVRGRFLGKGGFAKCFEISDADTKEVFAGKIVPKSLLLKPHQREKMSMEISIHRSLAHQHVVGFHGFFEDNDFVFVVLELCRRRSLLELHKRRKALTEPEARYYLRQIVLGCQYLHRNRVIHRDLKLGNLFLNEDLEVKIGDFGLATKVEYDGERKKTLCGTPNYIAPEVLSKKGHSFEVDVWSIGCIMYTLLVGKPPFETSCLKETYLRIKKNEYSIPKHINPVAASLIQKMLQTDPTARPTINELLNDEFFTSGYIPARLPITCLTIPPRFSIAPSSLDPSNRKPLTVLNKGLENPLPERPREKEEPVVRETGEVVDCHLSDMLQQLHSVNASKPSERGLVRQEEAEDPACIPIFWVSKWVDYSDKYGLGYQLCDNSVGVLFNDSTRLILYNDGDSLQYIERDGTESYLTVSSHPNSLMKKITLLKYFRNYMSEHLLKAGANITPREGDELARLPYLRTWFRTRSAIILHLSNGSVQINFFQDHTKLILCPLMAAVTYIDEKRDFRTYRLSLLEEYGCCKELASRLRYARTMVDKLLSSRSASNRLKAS
SMILES,Ki [1] [nM],Ki [2] [nM],GI50 [4] [nM],Ki [5] [nM],inhibition in vivo at 100 mg/kg [3] [%]
"CC1(C)c2[nH]nc(NC(=O)C3([Si](C)(C)C)CCC3)c2CN1C(=O)Nc1ccccc1 [IV-1, 6,6-Dimethyl-N-phenyl-3-[1-(trimethylsilyl)cyclobutanecarboxamido]-4,6-dihydropyrrolo[3,4-c]pyrazole-5(1H)-carboxamide]",≤ 50,≥ 1000,≤ 100,–,≥ 50
"COc1ccc(C)c(F)c1NC(=O)N1Cc2c(NC(=O)C3([Si](C)(C)C)CCC3)n[nH]c2C1(C)C [IV-689, N-(2-Fluoro-6-methoxy-3-methylphenyl)-6,6-dimethyl-3-[1-(trimethylsilyl)cyclobutanecarboxamido]-4,6-dihydropyrrolo[3,4-c]pyrazole-5(1H)-carboxamide]",≤ 50,≥ 1000,≤ 100,≥ 5000,–
"CC1(C)c2[nH]nc(NC(=O)C3([Si](C)(C)C)CCC3)c2CN1C(=O)Nc1c(Cl)cc(F)cc1Cl [IV-709, N-(2,6-Dichloro-4-fluorophenyl)-6,6-dimethyl-3-[1-(trimethylsilyl)cyclobutanecarboxamido]-4,6-dihydropyrrolo[3,4-c]pyrazole-5(1H)-carboxamide]",≤ 50,≥ 1000,≤ 100,≥ 5000,–
"Cc1ccc(F)c(Cl)c1NC(=O)N1Cc2c(NC(=O)C3([Si](C)(C)C)CCC3)n[nH]c2C1(C)C [IV-747, N-(2-Chloro-3-fluoro-6-methylphenyl)-6,6-dimethyl-3-[1-(trimethylsilyl)cyclobutanecarboxamido]-4,6-dihydropyrrolo[3,4-c]pyrazole-5(1H)-carboxamide]",≤ 50,≥ 1000,≤ 100,≥ 5000,–
"CC1(C)c2[nH]nc(NC(=O)C3([Si](C)(C)C)CCC3)c2CN1C(=O)Nc1c(F)ccc2c1OCC2 [IV-997, N-(6-Fluoro-2,3-dihydrobenzofuran-7-yl)-6,6-dimethyl-3-[1-(trimethylsilyl)cyclobutanecarboxamido]-4,6-dihydropyrrolo[3,4-c]pyrazole-5(1H)-carboxamide]",≤ 50,≥ 1000,≤ 100,≥ 5000,–
"CC1(C)c2[nH]nc(NC(=O)C3([Si](C)(C)C)CCC3)c2CN1C(=O)Nc1cccs1 [IV-1043, 6,6-Dimethyl-N-(thiophen-2-yl)-3-[1-(trimethylsilyl)cyclobutanecarboxamido]-4,6-dihydropyrrolo[3,4-c]pyrazole-5(1H)-carboxamide]",≤ 50,≥ 1000,≤ 100,≥ 5000,–
"Cc1cc2ccc(F)c(NC(=O)N3Cc4c(NC(=O)C5([Si](C)(C)C)CCC5)n[nH]c4C3(C)C)c2o1 [IV-1059, N-(6-Fluoro-2-methylbenzofuran-7-yl)-6,6-dimethyl-3-[1-(trimethylsilyl)cyclobutanecarboxamido]-4,6-dihydropyrrolo[3,4-c]pyrazole-5(1H)-carboxamide]",≤ 50,≥ 1000,≤ 100,≥ 5000,–

# The next lines start with results.
Ki [1] [nM],Ki [2] [nM],GI50 [4] [nM],Ki [5] [nM],SMILES,inhibition in vivo at 100 mg/kg [3] [%]
≤ 50,–,≤ 100,≥ 5000,"CC1(C)c2[nH]nc(NC(=O)C3([Si](C)(C)C)CCC3)c2CN1C(=O)Nc1c(F)cccc1Br [IV-121, N-(2-Bromo-6-fluorophenyl)-6,6-dimethyl-3-[1-(trimethylsilyl)cyclobutanecarboxamido]-4,6-dihydropyrrolo[3,4-c]pyrazole-5 (1H)-carboxamide]",≥ 50
≤ 50,≥ 1000,≤ 100,≥ 5000,"Cc1ccc(Cl)c(NC(=O)N2Cc3c(NC(=O)C4([Si](C)(C)C)CCC4)n[nH]c3C2(C)C)c1F [IV-629, N-(6-Chloro-2-fluoro-3-methylphenyl)-6,6-dimethyl-3-[1-(trimethylsilyl)cyclobutanecarboxamido]-4,6-dihydropyrrolo[3,4-c]pyrazole-5(1H)-carboxamide]",–
≤ 50,≥ 1000,≤ 100,≥ 5000,"Cc1ccc(F)c(NC(=O)N2Cc3c(NC(=O)C4([Si](C)(C)C)CCC4)n[nH]c3C2(C)C)c1Cl [IV-703, N-(2-Chloro-6-fluoro-3-methylphenyl)-6,6-dimethyl-3-[1-(trimethylsilyl)cyclobutanecarboxamido]-4,6-dihydropyrrolo[3,4-c]pyrazole-5(1H)-carboxamide]",–
≤ 50,≥ 1000,≤ 100,≥ 5000,"CC1(C)c2[nH]nc(NC(=O)C3([Si](C)(C)C)CCC3)c2CN1C(=O)Nc1ccsc1 [IV-1045, 6,6-Dimethyl-N-(thiophen-3-yl)-3-[1-(trimethylsilyl)cyclobutanecarboxamido]-4,6-dihydropyrrolo[3,4-c]pyrazole-5(1H)-carboxamide]",–
≤ 50,≥ 1000,≤ 100,≥ 5000,"Cc1coc2c(NC(=O)N3Cc4c(NC(=O)C5([Si](C)(C)C)CCC5)n[nH]c4C3(C)C)c(F)ccc12 [IV-1061, N-(6-Fluoro-3-methylbenzofuran-7-yl)-6,6-dimethyl-3-[1-(trimethylsilyl)cyclobutanecarboxamido]-4,6-dihydropyrrolo[3,4-c]pyrazole-5(1H)-carboxamide]",–
